From PubChem BioAssay (NCI)
“And” between values parts separate entries of the source, which are not always exact repeats. Equal entries are not always repeated.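 How tested: cells in 96-well plates exposed to compound for 48 hours at five concentrations. Here, GI50 denotes the concentration required for 50% inhibition of growth. At the TGI there is no net growth.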 *1 amine or outer side, *2 acyl side, *3 side chain or, on linkers, in order; H or OH if unused. Where a SMILES comes first, the peptide text is derived from it. [ ]: non-standard residue; d: D form. X56 = CC[C@H](C)[C@H](OC(=O)[C@@H](C)[C@@H](CC)N[*:1])C(=O)[*:2]; X32 = C[C@H](N[*:1])C(=O)C(C)(C)C(=O)[*:2]; NMeY = CN[C@@H](Cc1ccc(O)cc1)C(=O)O; NMeL = CN[C@@H](CC(C)C)C(=O)O; NMeV = CN[C@H](C(=O)O)C(C)C

Key:
Test in all cases: DTP human tumour cell line panel, 48 h
[1] = tested on: SF-268 CNS
[2] = tested on: SK-OV-3 ovarian
[3] = tested on: RXF 393 renal
[4] = tested on: MALME-3M melanoma
[5] = tested on: 786-0 renal
[6] = tested on: PC-3 prostate
[7] = tested on: HT29 colon
[8] = tested on: HOP-62 NSCLC
[9] = tested on: UACC-257 melanoma
[10] = tested on: T-47D breast

Row | SMILES | GI50 [1] [µM] | TGI [1] [µM] | GI50 [2] [µM] | TGI [2] [µM] | GI50 [3] [µM] | TGI [3] | GI50 [4] [µM] | TGI [4] [µM] | GI50 [5] [µM] | TGI [5] | GI50 [6] [µM] | TGI [6] [µM] | GI50 [7] [µM] | TGI [7] [µM] | GI50 [8] [µM] | TGI [8] [µM] | GI50 [9] [µM] | TGI [9] [µM] | TGI [10] [µM] | GI50 [10] [µM]
1 | Cc1ccc(Sc2sc(-c3ccccc3)nc2[P+](c2ccccc2)(c2ccccc2)c2ccccc2)cc1 | 0.366 | 1.43 | 0.282 | 0.863 | 0.331 | 1.38 µM | 0.27 | 0.92 | 0.381 | 1.45 µM | 0.283 | 1.18 | 0.237 | 1.17 | 0.296 | 1.18 | 0.328 | 1.11 |  | 
2 | N#C/C(=C\c1ccc(C(O)P(=O)(O)O)cc1)C(N)=O (centres undefined) |  | > 100 |  | > 100 |  |  |  | > 100 |  | > 100 µM |  |  |  | > 100 |  | > 100 |  | > 100 |  | 
3 | COc1ccc(-c2cc(=O)c3c(OC)c(OC)c(OC)c(OC)c3o2)c(OC)c1 |  | > 100 |  | > 100 |  | 99.7 µM |  | > 100 |  | > 100 µM |  |  |  | 68.5 |  | 70.6 |  | 49.5 | 59.5 | 
4 | COc1cc2c(cc1OCCCCOc1ccc(-c3nc4ccccc4s3)cc1)N=C[C@@H]1CCCN1C2=O | 0.998 | 3.58 | 1.92 | 5.08 | 0.19 | 0.443 µM |  |  | 0.58 | 1.16 µM | 0.63 | 2.11 | 0.819 | 15.8 | 0.745 | 2.14 | 2.63 | 7.06 | 1.45 | 0.339
5 | N#Cc1ccc2c(c1)C(=O)c1c-2n(CCCN)c(=O)c2cc([N+](=O)[O-])ccc12 | 0.0846 | 1.51 | 0.314 | 1.92 | 0.906 | 2.22 µM |  |  | 0.61 | 2.16 µM | 0.317 | 1.95 | 0.0718 | 0.562 | 0.259 | 1.79 | 0.637 | 2.43 |  | 
6 | N#CC1C2CCC3(CC2CCN1C(=O)c1ccccc1)OCCO3 (centres undefined) |  | > 100 |  | > 100 |  | > 100 µM |  | > 100 |  | > 100 µM |  |  |  | > 100 |  | > 100 |  | > 100 |  | 
7 | CC1(O)CCC2(C#N)CCC1C2O (centres undefined) |  | > 100 |  | > 100 |  | > 100 µM |  | > 100 |  | > 100 µM |  |  |  | > 100 |  | > 100 |  | > 100 |  | 
8 | O=C1CS/C(=N\S(=O)(=O)c2ccc(N3N=C4c5ccccc5CC4C3c3ccc(Cl)cc3)cc2)N1c1ccccc1 (centres undefined) | 22.7 | 84.8 | 31.4 | 95.2 | 29.4 | 81.3 µM |  |  | 46.6 | > 100 µM | 22.6 | 58.6 |  |  | 56.8 | > 100 | 92.9 | > 100 | > 100 | 41.7
9 | CSc1ncnc2c1CCN2 | > 100 | > 100 | > 100 | > 100 |  |  | > 100 | > 100 | > 100 | > 100 µM |  |  | > 100 | > 100 |  | > 100 | > 100 | > 100 |  | 
10 | CC(C)C(=O)/C=C/c1ccc(Cl)c(Cl)c1 |  | 40.4 |  | 70.3 |  | 33.5 µM |  |  |  | 27.6 µM |  |  |  | 43.8 |  |  |  | 45.1 |  | 
11 | NC(CC1=CCC=CC1)C(=O)O (centres undefined) |  | > 100 |  | > 100 |  | > 100 µM |  |  |  | > 100 µM |  | > 100 |  | > 100 |  | > 100 |  | > 100 | > 100 | 
12 | Clc1ccc(Nc2ccnc(NCCCNc3ccnc4cc(Cl)ccc34)n2)cc1 |  |  | 1.57 | 2.94 |  |  |  |  | 1.73 | 3.33 µM | 1.58 | 3.13 | 1.29 | 2.83 | 1.48 | 2.94 | 1.87 | 3.43 |  | 
13 | COC(=O)C1C(OCc2ccccc2)C2CCC1(OC)C=C2C (centres undefined) |  | > 100 |  | > 100 |  | > 100 µM |  | > 100 |  | > 100 µM |  |  |  | > 100 |  | > 100 |  | > 100 |  | 
14 | COc1cc2c(c(OC)c1OC)-c1ccc(OC)c(=O)cc1[C@@H](N(C)C=O)CC2 |  | > 100 |  |  |  |  |  | > 100 |  | > 100 µM |  |  |  | > 100 |  | > 100 |  | > 100 |  | 
15 | C1=Nc2ccccc2C=Nc2ccccc2C=Nc2ccccc2C=Nc2ccccc21.[Cl-].[Pt+2] | 25.1 | 75.9 | 24.4 | 65.9 |  |  |  |  | 32.2 | 97.1 µM |  |  | 22.3 | 52.5 | 15.1 | 45.6 |  |  |  | 
16 | O=C(CC1C=CCS1(=O)=O)NCc1ccccc1 (centres undefined) |  | > 100 |  | > 100 |  | > 100 µM |  |  |  | > 100 µM |  | > 100 |  | > 100 |  | > 100 |  | > 100 | > 100 | 
17 | COc1ccc(-c2c(N)[n+]([O-])c3ccccc3[n+]2[O-])cc1OC |  | > 100 |  | > 100 |  |  |  | > 100 |  | > 100 µM |  |  |  | > 100 |  | > 100 |  | > 100 |  | 
18 | Cc1ccc2c(c1)CNc1ccc(C)cc1CN2 |  | > 100 |  | > 100 |  |  |  |  |  | > 100 µM |  |  |  | > 100 |  | > 100 |  |  |  | 
19 | COc1cc2c(cn1)[nH]c1ccccc12 |  | > 100 |  | > 100 |  |  |  | > 100 |  | > 100 µM |  |  |  | > 100 |  | > 100 |  | > 100 |  | 
20 | CC/C=C/c1cc2cc[nH]c2c2c1C(C)C[C@@H]2C (some centres undefined) |  |  |  | > 100 |  | 41.3 µM |  | > 100 |  | 36.4 µM |  |  |  | 82.2 |  |  |  | > 100 |  | 
21 | CC[C@H](C)[C@@H]1OC(=O)[C@@H](C)[C@@H](CC)NC(=O)[C@H](C)NC(=O)C(C)(C)C(=O)[C@H](C)NC(=O)[C@H](Cc2ccc(OC)cc2)N(C)C(=O)[C@H](C(C)C)N(C)C(=O)CNC(=O)[C@H](CC(C)C)N(C)C(=O)CNC1=O (cyclo(A[X56]G[NMeL]G[NMeV][NMeY](Me)[X32])) | < 0.0161 |  | 0.024 |  | 0.0274 | 0.0483 µM and 0.104 µM | 0.0304 |  | 0.0675 | 0.48 µM and 0.233 µM |  | 6.85 |  | 13.2 |  | 0.175 | 0.0248 |  |  | 
